Here are results for three substances from patent US6656921B1, “Use of zinc hyaluronate against peptic ulcer” (Richter Gedeon Vegyeszeti Gyar RT., priority 1997, dated 2003).

As a reminder, the Inhibition is the percentage by which the read-out fell short of the control. By MIC is commonly meant the least concentration at which growth counts as inhibited.

Data set [1] has as its system acidified ethanol induced gastric lesion. As to the kind of experiment: Inhibition of acidified-ethanol induced gastric lesions. In kind it is in vivo, rat. The following applies: for Inhibition / Lesion length/stomach mm ± S.E.M.: 30 min before acidified ethanol. The procedure: Female RG-Wistar rats weighing between 120-150 g were used. Before experiments animals were fasted for 24 hours but received water ad libitum.
Experiments were carried out according to the technique similar to that described by A. Robert [Gastroenterology 77, […] (1979)].
Acidified ethanol (mixture of 50 ml of abs. ethanol and 1 ml of concentrated HCI) was used as strong irritants. Dose of acidified ethanol was 0.5 ml/100 g body weight with intragastric administration. Test compounds were given orally 30 minutes before the acidified ethanol challenge. When the duration of action of test compound was studied test material was administered 60 or 120 minutes earlier to the irritating effect induced by acidified-ethanol effect. One hour after the acidified ethanol treatment rats were sacrificed by cervical dislocation. Stomachs were removed and opened along the greater curvature and mildly washed down. The longitudinal hemorrhagic lesions were assayed by length.
ED50 value was defined as the dose that gave a 50% decrease in ulcer index.

Data set [2] deals with indomethacin induced gastric lesion. The data set is described as follows: Inhibition of indomethacin induced gastric lesion. The format is in vivo, rat. The following applies: for ED50 (dose protecting the stomach by 50% from indomethacin): p.o. The procedure:
2. Inhibition of Indomethacin Induced Gastric Lesion Female RG Wistar rats weighing between 120-150 g were used. Before the experiments animals were fasted for 24 hours but received water ad libitum. Test compounds were given orally, 30 minutes later the animals were treated subcutaneously with indomethacin at a dose of 40 mg/kg. Four hours after the irritating indomethacin administration the animals were killed by cervical dislocation. The stomachs were removed, opened along the greater curvature and the hemorrhagic lesions were counted on the glandular stomach.
ED50 value represents the dose which protects the stomach by 50 % from the damaging effect of indomethacin.

The subject of data set [3] is acetic acid induced chronic gastric ulcer. As to the kind of experiment: Inhibition of acetic acid induced chronic gastric ulcer. The following applies: for Ulcerated area mm^2 ± S.E.M.: day 5 to 14 after surgery. The format is in vivo, rat. The method, then: Female, RG Wistar rats weighing between 120-150 g were used. Before the surgery animals were deprived of food for 24 hours but received water ad libitum. The chronic gastric ulcer was induced by the injection of 25 μl/animal of 20% (v/v) acetic acid into the gastric wall under light ether anaesthesia according to the method similar to that described by Takagi et al. (1969). The oral treatment with the test compounds was started five days after the surgery and continued in a once-a-day regimen up to the 14th day. The animals were killed on the 15th day and their stomachs were dissected. The severity of ulceration was evaluated by the measurement of the diameter of the ulcers and the area affected was calculated. The healing effect was expressed as differences in percentage between the control and test group values.

The test system of data set [4] is indomethacin induced intestinal ulcer. As to the kind of experiment: Inhibition of indomethacin induced intestinal ulcer (tensile strength). The format is in vivo, rat. The settings on record: for Effect against indomethacin induced intestinal ulceration (in words): rat, in vivo; for Tensile strength of intestinal wall as index of ulceration Hgmm ± S.E.M.: indomethacin 15 mg/kg p.o. The procedure: Female, RG-Wistar, non-fasted rats weighing between 120-150 g were used. The intestinal ulcer was induced by oral administration of 15 mg/kg indomethacin. Test compound was given to animals orally 3 times over 48 hours in 24 hour equal intervals. The first introduction of test compound preceded the single indomethacin treatment by 60 minutes. Animals were killed 72 hours after the first administration of the test compound. Control animals received vehicle instead of test compound and normal rats mean non-fasted, non-treated rats. The small intestine segment from pylorus to cecum was removed, placed into 0.9% (w/v) sodium chloride solution at 37° C. and it was connected with a BP recorder through one of its ends via a polyethylene cannula. After ligating both ends of the prepartum the pressure was increased inside the intestine until air bubbles appeared at the weakened site of the intestinal wall. This pressure is expressed in Hgmm and is denoted tensile strength (TS).

The test system of data set [5] is Helicobacter pylori. The data set is described as follows: Activity against Helicobacter pylori (agar MIC). The format is cell-based. The method, then: These experiments were performed on Helicobacter pylori strains cultivated from the gastric biopsy samples of patients suffering from various ulcers. An 1% by (w/w) solutions of De-Nol (colloidal bismuth subcitrate) was used as reference substance. An agar medium supplemented with 10% of bovine blood was employed. Plates containing no substance to be tested were used as controls. The plates inoculated were incubated at 37° C. in a gas atmosphere containing 5% of oxygen and 7-8% of carbon dioxide for 3-5 days. Minimum inhibitory concentration (MIC) value was considered to be the lowest concentration of substances totally inhibiting the growth (propagation) of well-propagating bacteria on control plates.

Data set [6] deals with gastrointestinal motility. The data set is described as follows: Gastrointestinal motility in the charcoal propulsion test. In kind it is in vivo, rat. The settings on record: 100 mg/kg p.o. The method, then: Experiments were performed on female, RG-Wistar rats weighing 120-140 g, which were fasted for 24 hours but received water ad libitum.
The experimental procedure was carried out according to the technique similar to that described of P. A. Janssen and A. J. Jageneau [J. Pharm. Pharmacel. 9, 381 (1957)].
Test compounds were given orally at a dose of 100 mg/kg. Control animals received physiological saline solution instead of test compounds. 30 minutes later, the 5% (w/v) charcoal suspension was administered orally at a volume of 0.5 ml/animal. 60 minutes after the charcoal treatment the animals were sacrificed by cervical dislocation. The intestine from pylorus to cecum was removed, its lengths measured along with the distance traversed by the charcoal meal.
Motility was expressed as the ratio of length of charcoal suspension to the length of the whole intestine.

Setting [7] is: 40 mg/kg p.o., 30 min before indomethacin.
The mark [8] stands for this setting: 80 mg/kg p.o., 30 min before indomethacin.
[9] abbreviates: 160 mg/kg p.o., 30 min before indomethacin.

Several values for one entry are separate records, joined by “and”; a condition that tells them apart may be missing. Equal values may be shown once. Marks after values point to notes of the source that are not given here.

In the case of sucralfate [reference compound], the Inhibition came to 0% in data set [1] (50 mg/kg p.o.); 75.3% in data set [1] (100 mg/kg p.o.); 87.7% in data set [1] (400 mg/kg p.o.); 14.8% in data set [2] (setting [7]); 62.1% in data set [2] (setting [8]); 82.8% in data set [2] (setting [9]). In addition, the results for the “Lesion length/stomach mm ± S.E.M.” value in data set [1] (50 mg/kg p.o.), in data set [1] (100 mg/kg p.o.) and in data set [1] (400 mg/kg p.o.) were 64.0 ± 25.9 mm, 15.0 ± 5.5 mm and 7.5 ± 3.0 mm, respectively. Further, the entries for the “Lesion number/stomach ± S.E.M.” value in data set [2] (setting [7]), in data set [2] (setting [8]) and in data set [2] (setting [9]) were 14.4 ± 4.8, 6.4 ± 2.2 and 2.9 ± 1.4, respectively. Moreover, the “ED50 (dose protecting the stomach by 50% from indomethacin)” value in data set [2] is reported as 74.9 mg/kg. The figures for the “Ulcerated area mm^2 ± s.e.m.” value in data set [3] (100 mg/kg p.o. once a day) and in data set [3] (500 mg/kg p.o. once a day) were 6.7 ± 1.5 mm^2 and 4.3 ± 1.3* mm^2, respectively. Besides, the “Effect on healing %” value in data set [3] (500 mg/kg p.o. once a day, ↓healing slowed down, ↑healing accelerated) came to 53%. For the same substance, in data set [4], the “Effect against indomethacin induced intestinal ulceration (in words)” value is recorded as “totally ineffective”.

As to zinc hyaluronate, the “In vitro activity against Helicobacter pylori (in words)” value in data set [5] is reported as “commensurable with activity of De-Nol”. This substance also registered an MIC in data set [5] (strain 822/96, agar medium with 10% bovine blood, 37° C., 3-5 days) of 500 µg/mL.

With “zinc hyaluronate [Zinc hyaluronate (II)]”, the Inhibition in data set [1] (10 mg/kg p.o.) is 42.7%; in data set [1] (25 mg/kg p.o.), 77.3%; in data set [1] (50 mg/kg p.o.), 84.1%; in data set [1] (100 mg/kg p.o.) it was 98.1%; in data set [2] (1.0 mg/kg p.o., 30 min before indomethacin), 31.8%; in data set [2] (10.0 mg/kg p.o., 30 min before indomethacin), 56.5%. The same substance registered an Inhibition in data set [2] (100 mg/kg p.o., 30 min before indomethacin) of 78.2%. In addition, the “Lesion length/stomach mm ± S.E.M.” value in data set [1] (10 mg/kg p.o.) is reported as 48.0 ± 10.9 mm; in data set [1] (25 mg/kg p.o.) it was 19.0 ± 4.4 mm; in data set [1] (50 mg/kg p.o.), 13.3 ± 4.8 mm; in data set [1] (100 mg/kg p.o.), 1.6 ± 0.5 mm. The “ED50 (dose giving 50% decrease in ulcer index)” value in data set [1] (p.o., 30 min pretreatment) was 11.1 mg/kg. For the same substance, the “Lesion number/stomach ± S.E.M.” value in data set [2] (1.0 mg/kg p.o., 30 min before indomethacin 40 mg/kg s.c.) is reported as 8.8 ± 2.1; in data set [2] (10.0 mg/kg p.o., 30 min before indomethacin 40 mg/kg s.c.), 7.4 ± 1.9; in data set [2] (100 mg/kg p.o., 30 min before indomethacin 40 mg/kg s.c.) it was 3.7 ± 0.8. In addition, the “ED50 (dose protecting the stomach by 50% from indomethacin)” value in data set [2] turned out to be 5.8 mg/kg. In addition, the “Ulcerated area mm^2 ± S.E.M.” value was 6.2 ± 1.0 mm^2 in data set [3] (0.01 mg/kg p.o. once a day); 5.8 ± 1.1 mm^2 in data set [3] (0.1 mg/kg p.o. once a day); 3.7 ± 1.6* mm^2 and 3.7 ± 0.6* mm^2 in data set [3] (1.0 mg/kg p.o. once a day). Moreover, in data set [3] (rat, in vivo), the “Effect on healing of acetic acid induced chronic ulcer (in words)” value was “accelerated the healing”. Further, the “Tensile strength of intestinal wall as index of ulceration Hgmm ± S.E.M.” value in data set [4] (3 × 1 mg/kg p.o.) was 27.9 ± 8.9 Hgmm; in data set [4] (3 × 10 mg/kg p.o.), 41.3 ± 10.9 Hgmm; in data set [4] (3 × 100 mg/kg p.o.), 48.8 ± 11.3 Hgmm. Also, in data set [4] (doses of 10 mg/kg and 100 mg/kg), the “Increase of tensile strength of intestinal wall compared to the control group” value is reported as “almost three times”. Further, the “Effect against indomethacin induced intestinal ulceration (in words)” value in data set [4] was “had a protective effect on the intestinal wall”. In data set [6], the “Effect on the intestinal motility (in words)” value was “absence of change in activity”. Further, the “Propulsion of charcoal suspension mm ± S.E.M.” value in data set [6] (30 min before charcoal, 60 min after charcoal, listed as Zink-hyaluronate (II)) came to 610 ± 3.9 mm. In data set [6] (listed as Zink-hyaluronate (II)), the “Ratio of charcoal suspension to the whole intestinal part” value worked out at 0.77 ± 0.04.
